Measurements as given in US20230000869A1, “NOVEL ALK2 INHIBITORS AND METHODS FOR INHIBITING BMP SIGNALING” (The Brigham and Women's Hospital, Inc., priority 2017, published 2023).

Key:
Assay type in all cases: biochemical
ALK1 = target: T1, ALK1 (Homo sapiens, UniProt P37023); assay: TR-FRET enzymatic assay, ALK1 kinase, 1536-well; conditions: for IC50 / ALK1 Span: TR-FRET; for IC50: 10 nM ALK, Ulight topo II substrate 50 nM, ATP 10 uM (Table 1); for ALK1 Span: span of the concentration-response curve
T1 construct: purchased Life technology (Fredrick, Md.) and/or CARNA BIOSCIENCES Inc. (Kobe, Japan)
From the text: (§1) We have developed six ALK kinase enzyme assays for determination of compound activities on ALK1, ALK2, ALK3, ALK4, ALK5 and ALK6. For the assay development, we had tested a number of substrates and assay conditions that led to the final optimized assay protocols with good assay windows with signal to basal (S/B) ratios above 20 fold for all six ALK assays (FIG. 1). In our knowledge, these ALK kinase assays have not been reported elsewhere.
(§2) ALK1 and ALK2-ALK6 were obtained from Life technology (Fredrick, Md.) and CARNA BIOSCIENCES Inc. (Kobe, Japan). Ulight-DNA Topoisomerase 2 alpha (Thr-1342) peptide and Europium anti-phospho-DNA Topoisomerase 2 alpha (Thr-1342) antibody was from Perkin Elmer Inc. The kinase buffer was composed of 50 mM HEPES pH7.0, 10 mM MgCl2, 3 mM MnCl2, 0.005% Tween-20 and 2 mM DTT. The compound plates and the white solid MB assay plates were purchased from Greiner Bio-one (Monroe, N.C.).
(§3) The binding of Eu-anti-phospho-peptide antibody to the phosphorylated Ulight peptide substrate bring both Eu donor and Ulight acceptor dye into close proximity. Upon excitation at 320-340 nm, the emission energy from Eu donor is transferred to Ulight acceptor dye that will generate light at 665 nm. The intensity light emission is proportional to the level of the peptide phosphorylation by ALKs. The assay was optimized and performed in 1536 plate (Table 1). Briefly, the ALKs enzymatic assay was initiated by dispense 2.5 ul enzyme with a final concentration at 10 nM prepared in 1× kinase reaction buffer. The assay plate was then added with compounds with the Pintool station (23 nl/well compound dilutions in DMSO solution) that was followed by incubation at room temperature for 10 minutes. Then 2.5 ul/well substrate was added in which 50 nM peptide substrate mixed with 10 uM, 100 uM or 1 mM ATP (final concentration). The assay plate was incubated at room temperature for 60 minutes and the kinase reaction was stopped by addition of 5 ul/well of 4 nM Eu-anti-phospho-peptide antibody with 12 mM EDTA prepared in 1× detection buffer. The assay plate was measured in an EnVision plate reader (Perkin Elmer) in the TR-FRET detection mode (excitation at 340 nm and emission at 665 nm).

ALK3 = target: T2, ALK3 (Homo sapiens, UniProt P36894); assay: TR-FRET enzymatic assay, ALK3 kinase, 1536-well; conditions: for IC50: 10 nM ALK, Ulight topo II substrate 50 nM, ATP 10 uM (Table 1); for ALK3 Span: span of the concentration-response curve
T2 construct: purchased Life technology (Fredrick, Md.) and/or CARNA BIOSCIENCES Inc. (Kobe, Japan)
From the text: as §1, §2, §3

ALK4 = target: T3, ALK4 (Homo sapiens, UniProt P36896); assay: TR-FRET enzymatic assay, ALK4 kinase, 1536-well; conditions: for IC50: 10 nM ALK, Ulight topo II substrate 50 nM, ATP 10 uM (Table 1); for ALK4 Span: span of the concentration-response curve
T3 construct: purchased Life technology (Fredrick, Md.) and/or CARNA BIOSCIENCES Inc. (Kobe, Japan)
T3 sequence (P36896 24-505): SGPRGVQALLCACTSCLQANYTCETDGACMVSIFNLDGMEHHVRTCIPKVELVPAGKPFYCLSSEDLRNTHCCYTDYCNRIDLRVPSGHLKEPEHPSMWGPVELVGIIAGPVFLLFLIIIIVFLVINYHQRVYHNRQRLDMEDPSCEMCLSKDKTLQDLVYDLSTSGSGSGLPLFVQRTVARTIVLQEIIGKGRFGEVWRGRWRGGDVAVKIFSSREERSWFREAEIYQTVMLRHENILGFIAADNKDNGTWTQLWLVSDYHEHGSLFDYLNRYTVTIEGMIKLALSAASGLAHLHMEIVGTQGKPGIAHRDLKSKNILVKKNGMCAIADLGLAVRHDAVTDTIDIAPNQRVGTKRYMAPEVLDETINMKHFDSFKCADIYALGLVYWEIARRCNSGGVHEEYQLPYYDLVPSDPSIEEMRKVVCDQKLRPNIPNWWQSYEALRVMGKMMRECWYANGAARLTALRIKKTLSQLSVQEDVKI
From the text: as §1, §2, §3

ALK5 = target: T4, ALK5 (Homo sapiens, UniProt P36897); assay: TR-FRET enzymatic assay, ALK5 kinase, 1536-well; conditions: for IC50: 10 nM ALK, Ulight topo II substrate 50 nM, ATP 10 uM (Table 1); for ALK5 Span: span of the concentration-response curve
T4 construct: purchased Life technology (Fredrick, Md.) and/or CARNA BIOSCIENCES Inc. (Kobe, Japan)
T4 sequence (P36897 34-503): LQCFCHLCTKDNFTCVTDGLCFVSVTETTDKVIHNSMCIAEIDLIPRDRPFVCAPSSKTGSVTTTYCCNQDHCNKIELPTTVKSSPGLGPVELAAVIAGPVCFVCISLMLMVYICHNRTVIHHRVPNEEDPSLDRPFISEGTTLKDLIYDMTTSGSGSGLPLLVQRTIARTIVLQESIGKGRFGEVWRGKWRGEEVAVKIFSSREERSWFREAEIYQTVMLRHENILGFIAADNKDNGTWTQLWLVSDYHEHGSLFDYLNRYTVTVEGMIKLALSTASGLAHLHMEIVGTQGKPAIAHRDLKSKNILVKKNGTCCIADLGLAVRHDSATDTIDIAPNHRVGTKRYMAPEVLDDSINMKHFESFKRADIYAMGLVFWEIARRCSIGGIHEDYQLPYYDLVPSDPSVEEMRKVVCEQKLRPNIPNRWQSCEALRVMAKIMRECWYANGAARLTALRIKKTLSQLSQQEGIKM
From the text: as §1, §2, §3

ALK6 = target: T5, ALK6 (Homo sapiens, UniProt O00238); assay: TR-FRET enzymatic assay, ALK6 kinase, 1536-well; conditions: for IC50: 10 nM ALK, Ulight topo II substrate 50 nM, ATP 10 uM (Table 1); for ALK6 Span: span of the concentration-response curve
T5 construct: purchased Life technology (Fredrick, Md.) and/or CARNA BIOSCIENCES Inc. (Kobe, Japan)
From the text: as §1, §2, §3

T2 sequence (P36894 24-532): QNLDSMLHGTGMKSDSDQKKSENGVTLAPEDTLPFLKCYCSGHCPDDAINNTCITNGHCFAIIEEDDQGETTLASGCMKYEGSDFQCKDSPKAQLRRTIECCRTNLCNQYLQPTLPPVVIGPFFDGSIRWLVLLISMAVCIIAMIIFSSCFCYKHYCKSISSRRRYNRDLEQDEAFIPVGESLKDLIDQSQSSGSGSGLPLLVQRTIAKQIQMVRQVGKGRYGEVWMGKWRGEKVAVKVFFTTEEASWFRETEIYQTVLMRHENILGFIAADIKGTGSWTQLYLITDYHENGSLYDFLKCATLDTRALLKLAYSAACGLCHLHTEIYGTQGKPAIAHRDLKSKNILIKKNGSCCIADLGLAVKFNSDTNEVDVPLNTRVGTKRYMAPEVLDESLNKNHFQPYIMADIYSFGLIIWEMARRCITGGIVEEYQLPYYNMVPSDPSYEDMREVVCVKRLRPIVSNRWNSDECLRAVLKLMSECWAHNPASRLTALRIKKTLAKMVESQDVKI
T1 sequence (P37023 22-503): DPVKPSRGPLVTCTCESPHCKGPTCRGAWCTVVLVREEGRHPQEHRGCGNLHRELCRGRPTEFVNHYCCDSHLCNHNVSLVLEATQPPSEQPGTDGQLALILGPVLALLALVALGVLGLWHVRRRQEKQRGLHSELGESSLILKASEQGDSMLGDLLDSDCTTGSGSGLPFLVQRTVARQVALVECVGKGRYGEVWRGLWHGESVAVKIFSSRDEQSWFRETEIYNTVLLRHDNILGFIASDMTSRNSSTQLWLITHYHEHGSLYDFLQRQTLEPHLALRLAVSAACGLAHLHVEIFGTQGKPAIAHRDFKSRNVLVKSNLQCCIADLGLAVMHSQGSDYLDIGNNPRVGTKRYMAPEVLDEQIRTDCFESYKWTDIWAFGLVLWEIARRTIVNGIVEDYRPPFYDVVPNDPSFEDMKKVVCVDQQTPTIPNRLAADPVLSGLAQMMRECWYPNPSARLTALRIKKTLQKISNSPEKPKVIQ
T5 sequence (O00238 14-502): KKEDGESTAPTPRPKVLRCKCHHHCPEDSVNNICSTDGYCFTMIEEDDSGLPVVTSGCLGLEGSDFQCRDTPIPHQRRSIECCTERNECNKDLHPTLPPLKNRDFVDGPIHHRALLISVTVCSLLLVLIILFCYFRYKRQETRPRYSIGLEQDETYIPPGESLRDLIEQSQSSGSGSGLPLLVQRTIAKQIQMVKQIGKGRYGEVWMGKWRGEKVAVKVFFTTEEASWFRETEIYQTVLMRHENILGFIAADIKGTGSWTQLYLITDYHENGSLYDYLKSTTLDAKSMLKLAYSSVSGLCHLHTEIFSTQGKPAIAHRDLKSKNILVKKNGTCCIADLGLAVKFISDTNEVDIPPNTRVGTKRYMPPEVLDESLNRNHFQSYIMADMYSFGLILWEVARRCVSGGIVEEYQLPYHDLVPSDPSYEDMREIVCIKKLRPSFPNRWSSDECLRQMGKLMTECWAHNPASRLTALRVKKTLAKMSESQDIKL

| Structure (SMILES) | IC50 (ALK1) | ALK1 Span (ALK1) | IC50 (ALK3) | ALK3 Span (ALK3) | IC50 (ALK4) | ALK4 Span (ALK4) | IC50 (ALK5) | ALK5 Span (ALK5) | IC50 (ALK6) | ALK6 Span (ALK6) | activity in ALK1 in the presence of 10, 100, or 1,000 uM ATP (ALK1; FIG. 3, ATP 10 uM versus 100 uM or 1 mM) |
| --- | --- | --- | --- | --- | --- | --- | --- | --- | --- | --- | --- |
| Cc1cc(-c2cnn3cc(N4CCC(N5CCNCC5)CC4)cnc23)c2ccccc2n1 [Compound 34] | 671 nM | 93.42 | 1870 nM | 104.4 | 2030 nM | 101.1 | 4680 nM | 105.678 | 4060 nM | 91.28 |  |
| c1ccc2c(-c3cnn4cc(-c5ccc(N6CCNCC6)cc5)cnc34)ccnc2c1 [TRND00262637-13] |  |  |  |  |  |  |  |  |  |  | activity reduced in the higher ATP concentrations |
| COc1cc2c(-c3cnn4cc(N5CCC(N6CCN(C)CC6)CC5)cnc34)ccnc2cc1F [Compound 15, 7-fluoro-6-methoxy-4-(6-(4-(4-methylpiperazin-1-yl)piperidin-1-yl)pyrazolo[1,5-a]pyrimidin-3-yl)quinoline] | 1520 nM | 92.3 | 2820 nM | 96.93 | 4210 nM | 101 | 8920 nM | 96 | 10300 nM | 80.81 |  |

Further lines, with some results ahead:

| IC50 (ALK1) | ALK1 Span (ALK1) | IC50 (ALK3) | ALK3 Span (ALK3) | IC50 (ALK4) | ALK4 Span (ALK4) | IC50 (ALK5) | ALK5 Span (ALK5) | IC50 (ALK6) | ALK6 Span (ALK6) | Structure (SMILES) | activity in ALK1 in the presence of 10, 100, or 1,000 uM ATP (ALK1; FIG. 3, ATP 10 uM versus 100 uM or 1 mM) |
| --- | --- | --- | --- | --- | --- | --- | --- | --- | --- | --- | --- |
| 325 nM | 89.1 | 1240 nM | 97.0 | 994 nM | 96.6 | 2470 nM | 100.3 | 2400 nM | 86.5 | Cc1cc(-c2cnn3cc(N4CCC(N5CCN(C)CC5)CC4)cnc23)c2ccccc2n1 [Compound 8] |  |
| 269 nM | 91.4 | 1280 nM | ~115.7 | 1030 nM | 100.0 | 2080 nM | 102.1 | 2980 nM | 89.9 | Cc1cc(-c2cnn3cc(N4CCC(N5CCOCC5)CC4)cnc23)c2ccccc2n1 [Compound 11] |  |
